The experiment concerns the target CXCR4 (Homo sapiens, UniProt P61073). Kind of experiment: HPB-ALL CXCR4 competitive binding assay (12G5 binding assay). Also noted: HPB-ALL cells were maintained in RPMI-1640 (Gibico) supplemented with 10% FBS (Hyclone); endogenous in cells; host or cells: HPB-ALL cells. As to conditions: HPB-ALL cells; competition with APC-conjugated anti-human CXCR4 clone 12G5 at its EC80; 4° C. for 3 h; FACS. How it is done: HPB-ALL CXCR4 Competitive Binding Assay
HPB-ALL cells were maintained in RPMI-1640 (Gibico) supplemented with 10% FBS (Hyclone). APC-conjugated anti-human CXCR4 was from Sungene. EC80 was first determined for 12G5 binding to CXCR4. Then the compounds for testing were added into 96-well plates serially diluted at a ratio of 1:3. Cells were washed once with ice-cold assay buffer (DPBS+2% HI-FBS) and then re-suspended in the same buffer at a final concentration of 1×10^6/mL. Cell suspension was then added into the wells and with the addition of APC-conjugated anti-human CXCR4 clone 12G5 at its EC80 determined. The mix of cell, compounds and APC-conjugated anti-human CXCR4 were incubated at 4° C. for 3 h before addition of 100 μL of 4% PFA. Cells were then washed once and resuspended in assay buffer and examined by FACS. The percent (%) effect at each concentration of compound was calculated and relative to the amount of calcium produced in the positive and negative control wells contained within each assay plate. The concentrations and % effect values for tested compounds were plotted and the concentration of compound required for 50% effect (IC50) was determined. Tables 2 summarize results of the CXCR4 competitive binding assay for selected compounds disclosed in the present disclosure. FIGS. 1-2 depict the IC50 curves of compounds A42 and A43.

CXCR4, sequence (P61073 whole entry): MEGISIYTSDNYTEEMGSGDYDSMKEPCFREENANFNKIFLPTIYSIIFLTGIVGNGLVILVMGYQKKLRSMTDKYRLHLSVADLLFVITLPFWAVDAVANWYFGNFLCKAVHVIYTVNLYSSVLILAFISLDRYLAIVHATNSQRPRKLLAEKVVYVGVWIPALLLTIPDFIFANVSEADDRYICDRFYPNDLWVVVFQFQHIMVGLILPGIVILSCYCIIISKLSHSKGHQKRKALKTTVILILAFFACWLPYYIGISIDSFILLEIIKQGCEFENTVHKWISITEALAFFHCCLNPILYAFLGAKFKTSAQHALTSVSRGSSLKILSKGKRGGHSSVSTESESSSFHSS

Consider `Cc1nc(CN2CCC[C@H]2c2ccccn2)cc(N2CCN(C)CC2)n1` [Compound C23], for which the 50% inhibitory concentration (IC50) was 144 nM.

Regarding `CSc1nc(CN2CCCCC2c2ccccn2)cc(N2CCN(C)CC2)n1` (stereo not drawn) [Compound C18], the IC50 stood at 429 nM.

On to `CN(Cc1cc(NCCN2CCOCC2)ncn1)C1CCCc2cccnc21` (stereo not drawn) [Compound A26], for which the IC50 came to 41 nM.

As to `CN1CCN(c2cc(CN(C)C3CCCc4cccnc43)nc(N3CCCC3)n2)CC1` (stereo not drawn) [Compound A13], the IC50 stood at 8000 nM.

In turn, `CCNc1nc(CN(C)C2CCCc3cccnc32)cc(N2CCN(C)CC2)n1` (stereo not drawn) [Compound A19] registered an IC50 of 67 nM.

On to `CSc1nc(CN(C)C(CCCCNC(=O)OC(C)(C)C)c2ccccn2)cc(N2CCN(C)CC2)n1` (stereo not drawn) [Compound A36], for which the half-maximal inhibitory concentration (IC50) turned out to be 5730 nM.

`CCN1CCN(c2cc(CN(C)[C@H]3CCCc4cccnc43)nc(C)n2)CC1` [Compound A43] came in with an IC50 of 11 nM.

With `Cc1nc([C@H]2C[C@@H](O)CN2[C@H]2CCCc3cccnc32)cc(N2CCN(C)CC2)n1` [Compound C16, (3R,5R)-5-(2-methyl-6-(4-methylpiperazin-1-yl)pyrimidin-4-yl)-1-((S)-5,6,7,8-tetrahydroquinolin-8-yl)pyrrolidin-3-ol], the IC50 came out at 7.74 nM.

In turn, `CN(Cc1cc(N2CCN(CCC#N)CC2)ncn1)C1CCCc2cccnc21` (stereo not drawn) [Compound A8, 3-(4-(6-((methyl(5,6,7,8-tetrahydroquinolin-8-yl)amino)methyl)pyrimidin-4-yl)piperazin-1-yl)propanenitrile] yielded a half-inhibitory concentration (IC50) of 242 nM.

For the compound `Cc1nc(CN(C)[C@H]2CCCc3cccnc32)cc(NCCCN2CCOCC2)n1` [Compound A70], the IC50 came to 54 nM.

For `CSc1nc(CN(C)C2CCCc3cccnc32)c(C)c(N2CCN(C)CC2)n1` (stereo not drawn) [Compound A27], the IC50 came out at 7.9 nM.

`CC(C)Oc1nc(CN(C)C2CCCc3cccnc32)cc(N2CCN(C)CC2)n1` (stereo not drawn) [Compound A31] gave an IC50 of 77 nM.

With `Cc1ccc(C(C)N(C)Cc2cc(N3CCN(C)CC3)nc(C)n2)nc1` (stereo not drawn) [Compound A55], the IC50 is 44 nM.

Take `CCN(Cc1cc(N2CCN(C)CC2)nc(C)n1)[C@H]1CCCc2cccnc21` [Compound A58]: the IC50 came out at 19 nM.

Compound `Cc1nc(CN(C)C2c3ncccc3CCC23CC3)cc(N2CCN(C)CC2)n1` (stereo not drawn) [Compound A41] came in with an IC50 of 97 nM.

Regarding `CO[C@@H]1C[C@H](c2cc(N3CCN(C)CC3)nc(C)n2)N([C@H]2CCCc3cccnc32)C1` [Compound C21], the IC50 was 82 nM.

Turning to `CN1CCN(c2cc(CN(C)[C@H]3CCCc4cccnc43)nc(C(F)(F)F)n2)CC1` [Compound A48], the IC50 was found to be 240 nM.

Compound `CN1CCN(c2cc(CN(C)C3CCCc4cccnc43)nc(N3CCOCC3)n2)CC1` (stereo not drawn) [Compound A14] returned an IC50 of 2250 nM.

Consider `Cc1nc(CN(C)C(C)c2ccccn2)cc(N2CCN(C)CC2)n1` (stereo not drawn) [Compound A52], for which the IC50 is 27 nM.

Compound `CCOc1nc(CN(C)C2CCCc3cccnc32)cc(N2CCN(C)CC2)n1` (stereo not drawn) [Compound A30] displayed an IC50 of 65 nM.

In turn, `CN(Cc1cc(N2CCN(CC3CC3)CC2)ncn1)C1CCCc2cccnc21` (stereo not drawn) [Compound A60] displayed an IC50 of 464 nM.

`CN1CCN(c2cc(CN(C)C3CCCc4cccnc43)nc(-c3ccccc3)n2)CC1` (stereo not drawn) [Compound A17] registered an IC50 of 2690 nM.

`Cc1nc(CN(C)[C@H]2CCCc3cccnc32)cc(N2CCN(C3CC3)CC2)n1` [Compound A47] came in with an IC50 of 58 nM.

In turn, `CSc1nc([C@@H](C)N(C)[C@@H]2CCCc3cccnc32)cc(N2CCN(C)CC2)n1` [Compound A35] came in with an IC50 of 106 nM.

As to `CN(Cc1cc(N2CCN(CCO)CC2)ncn1)C1CCCc2cccnc21` (stereo not drawn) [Compound A5], the IC50 was 113 nM.

Take `CSc1nc(CN2CCCCC2c2ccccn2)cc(N2CCN(C)CC2)n1` (stereo not drawn) [Compound C10]: the IC50 came to 248 nM.

Consider `CSc1nc(CN(C)C2CCCc3cccnc32)cc(N2CCN(C)CC2)n1` (stereo not drawn) [Compound A3], for which the IC50 is 19 nM.

For `Cc1nc(CN(C)[C@H]2CCCc3cccnc32)cc(N2C[C@@H](C)N(C)[C@@H](C)C2)n1` [Compound A67], the IC50 was determined as 12 nM.

For `Cc1nc(CN(C)[C@H](C)c2ccccn2)cc(N2CCN(C)CC2)n1` [Compound A76], the IC50 worked out at 220 nM.

`Cc1nc([C@H]2CC(F)(F)CN2[C@H]2CCCc3cccnc32)cc(N2CCN(C)CC2)n1` [Compound C19] came in with an IC50 of 1710 nM.

For the compound `CN1CCN(c2cc(CN(C)C3CCCc4cccnc43)nc(N(C)C)n2)CC1` (stereo not drawn) [Compound A12], the IC50 stood at 8000 nM.

Regarding `CN(C)c1ncc(CN(C)C2CCCc3cccnc32)c(NCCN)n1` (stereo not drawn) [Compound B8, reference compound], the IC50 is > 10000 nM.

`CC(C)N1CCN(c2cc(CN(C)C3CCCc4cccnc43)ncn2)CC1` (stereo not drawn) [Compound A24] showed a half-inhibitory concentration (IC50) of 42 nM.

`Cc1nc(CN(C)C(C)(C)c2ccccn2)cc(N2CCN(C)CC2)n1` [Compound A62] yielded an IC50 of 2290 nM.

Turning to `CN(Cc1cc(N2CCNCC2)ncn1)C1CCCc2cccnc21` (stereo not drawn) [Compound A7, N-methyl-N-((6-(piperazin-1-yl)pyrimidin-4-yl)methyl)-5,6,7,8-tetrahydroquinolin-8-amine], the IC50 was 393 nM.

The compound `Cc1nc(CN(C)[C@H]2CCCc3cccnc32)cc(N2CCN3CCC[C@@H]3C2)n1` [Compound A68] came in with an IC50 of 46 nM.

`Cc1cccc([C@@H]2CCCN2Cc2cc(N3CCN(C)CC3)nc(C)n2)n1` [Compound C28] displayed a 50% inhibitory concentration (IC50) of 2280 nM.

As for `Cc1nc(CN(C)[C@H]2CCCc3cccnc32)cc(N2CCC(N3CCN(C)CC3)CC2)n1` [Compound A74], the half-inhibitory concentration (IC50) came to 100 nM.

For the compound `Cc1nc(CN(C)C2CCCc3cccnc32)cc(N2CCN(C)CC2)n1` (stereo not drawn) [Compound A9, N-methyl-N-((2-methyl-6-(4-methylpiperazin-1-yl)pyrimidin-4-yl)methyl)-5,6,7,8-tetrahydroquinolin-8-amine], the IC50 is 14 nM.

Regarding `Cc1nc(CN(C)C2CCCc3cccnc32)c(C#N)c(N2CCN(C)CC2)n1` (stereo not drawn) [Compound A77], the IC50 amounted to 9 nM.

As to `CN(C)c1ncc(CN(C)C2CCCc3cccnc32)c(NCCNC(=O)OC(C)(C)C)n1` (stereo not drawn) [Compound B7, reference compound], the IC50 is > 10000 nM.

For the compound `CC(C)c1nc(CN(C)C2CCCc3cccnc32)cc(N2CCN(C)CC2)n1` (stereo not drawn) [Compound A29], the IC50 is 78 nM.

Compound `Cc1nc([C@@H]2CCCCN2[C@@H]2CCCc3cccnc32)cc(N2CCN(C)CC2)n1` [Compound C8] came in with an IC50 of 6960 nM.

`CSc1nc(CN(C)C2c3ncccc3CCC23CC3)cc(N2CCN(C)CC2)n1` (stereo not drawn) [Compound A40]: the IC50 is 110 nM.

The compound `CN(C)C1CCN(c2cc(CN(C)C3CCCc4cccnc43)ncn2)C1` (stereo not drawn) [Compound A39] showed an IC50 of 94 nM.

In the case of `Cc1nc(CN(C)C(CCCN)c2ccccn2)cc(N2CCN(C)CC2)n1` (stereo not drawn) [Compound A38], the IC50 was 6940 nM.

For `Cc1nc([C@H]2CCCN2[C@H]2CCCc3cccnc32)cc(N2CCN(C)CC2)n1` [Compound C5], the IC50 is 20 nM.

`Cc1nc(CN(C)[C@H]2CCCc3cccnc32)cc(N2CCN(C)CC2CO)n1` (stereo partly drawn) [Compound A73] had an IC50 of 32 nM.

`Cc1ccnc([C@@H]2CCCN2Cc2cc(N3CCN(C)CC3)nc(C)n2)c1` [Compound C26]: the concentration for half-maximal inhibition (IC50) came to 206 nM.

Compound `CC(c1ccccn1)N(C)Cc1cc(N2CCN(C)CC2)ncn1` (stereo not drawn) [Compound A4] displayed a half-maximal inhibitory concentration (IC50) of 229 nM.

In turn, `Cc1nc(CN(C)C(C)c2ncccc2C)cc(N2CCN(C)CC2)n1` (stereo not drawn) [Compound A53] registered a half-maximal inhibitory concentration (IC50) of 33 nM.

`Cc1nc(CN(CC2CC2)C2CCCc3cccnc32)cc(N2CCN(C)CC2)n1` (stereo not drawn) [Compound A59] returned an IC50 of 63 nM.

`CSc1nc([C@H]2CCCN2[C@H]2CCCc3cccnc32)cc(N2CCN(C)CC2)n1` [Compound C1] showed an IC50 of 93 nM.

On to `Cc1nc(CN(C)[C@H]2CCCc3cccnc32)cc(N2CCC(N3CCOCC3)CC2)n1` [Compound A72], for which the IC50 amounted to 146 nM.

In turn, `Cc1nc([C@H]2C[C@@H](O[Si](C)(C)C(C)(C)C)CN2[C@H]2CCCc3cccnc32)cc(N2CCN(C)CC2)n1` [Compound C15] registered an IC50 of 500 nM.

On to `CN1CCN(c2cc(CN(C)C3CCCc4cccnc43)nc(C3CC3)n2)CC1` (stereo not drawn) [Compound A11], for which the IC50 came out at 26 nM.

In the case of `Cc1ccnc(C(C)N(C)Cc2cc(N3CCN(C)CC3)nc(C)n2)c1` (stereo not drawn) [Compound A54], the IC50 came out at 356 nM.

In turn, `CN(C)CCN(C)c1cc(CN(C)C2CCCc3cccnc32)ncn1` (stereo not drawn) [Compound A2] returned an IC50 of 228 nM.

`CCc1nc(CN(C)C2CCCc3cccnc32)cc(N2CCN(C)CC2)n1` (stereo not drawn) [Compound A28] returned an IC50 of 21 nM.

Compound `CN1CCN(c2cc(CN(C)C3CCCc4cccnc43)nc(N)n2)CC1` (stereo not drawn) [Compound A16] displayed a 50% inhibitory concentration (IC50) of 17 nM.

The compound `CSc1nc([C@H](C)N(C)[C@H]2CCCc3cccnc32)cc(N2CCN(C)CC2)n1` [Compound A32] gave an IC50 of 22 nM.

`CSc1nc([C@H](C)N(C)[C@@H]2CCCc3cccnc32)cc(N2CCN(C)CC2)n1` [Compound A33] came in with an IC50 of 268 nM.

`CSc1nc(CN2CCCC2c2ccccn2)cc(N2CCN(C)CC2)n1` (stereo not drawn) [Compound C11] displayed an IC50 of 142 nM.

(Values after patent US11396501B2, “Heteroaryl compounds as CXCR4 inhibitors, composition and method using the same” (CGENETECH (SUZHOU, CHINA) CO., LTD., priority 2017, dated 2022).)
